From PubChem BioAssay (NCI)
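Cells were grown in 96-well plates and exposed to each compound for 48 hours at five concentrations; endpoints were interpolated linearly between bracketing concentrations, or set to the highest concentration if not reached. At the GI50, growth is halved. TGI: total growth inhibition.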

Experiments:
Assay in all cases: growth of human tumour cells (NCI), 48 h
MOLT-4 leukemia = system: MOLT-4 leukemia
UACC-62 melanoma = system: UACC-62 melanoma
HOP-92 NSCLC = system: HOP-92 NSCLC
HL-60(TB) leukemia = system: HL-60(TB) leukemia
786-0 renal = system: 786-0 renal
SW-620 colon = system: SW-620 colon
KM12 colon = system: KM12 colon
IGROV1 ovarian = system: IGROV1 ovarian
NCI-H226 lung = system: NCI-H226 lung
BT-549 breast = system: BT-549 breast
HOP-62 NSCLC = system: HOP-62 NSCLC
MCF7 breast = system: MCF7 breast
HCT-15 colon = system: HCT-15 colon
RXF 393 renal = system: RXF 393 renal
OVCAR-8 ovarian = system: OVCAR-8 ovarian
DU-145 prostate = system: DU-145 prostate
RPMI-8226 leukemia = system: RPMI-8226 leukemia
EKVX NSCLC = system: EKVX NSCLC
T-47D breast = system: T-47D breast
MALME-3M melanoma = system: MALME-3M melanoma
SR leukemia = system: SR leukemia
UO-31 renal = system: UO-31 renal
CCRF-CEM leukemia = system: CCRF-CEM leukemia
CAKI-1 renal = system: CAKI-1 renal
OVCAR-4 ovarian = system: OVCAR-4 ovarian
SF-268 CNS = system: SF-268 CNS
MDA-MB-435 = system: MDA-MB-435
HT29 colon = system: HT29 colon
SN12C renal = system: SN12C renal
NCI/ADR-RES ovarian = system: NCI/ADR-RES ovarian
OVCAR-5 ovarian = system: OVCAR-5 ovarian
SK-OV-3 ovarian = system: SK-OV-3 ovarian
HCC-2998 colon = system: HCC-2998 colon
SK-MEL-5 melanoma = system: SK-MEL-5 melanoma
PC-3 prostate = system: PC-3 prostate
OVCAR-3 ovarian = system: OVCAR-3 ovarian
COLO 205 colon = system: COLO 205 colon
M14 melanoma = system: M14 melanoma
SK-MEL-28 melanoma = system: SK-MEL-28 melanoma
A498 renal = system: A498 renal
HCT-116 colon = system: HCT-116 colon
MDA-MB-231 breast = system: MDA-MB-231 breast
NCI-H522 lung = system: NCI-H522 lung
SNB-75 CNS = system: SNB-75 CNS
SF-539 CNS = system: SF-539 CNS
ACHN renal = system: ACHN renal
SNB-19 CNS = system: SNB-19 CNS
A549 NSCLC = system: A549 NSCLC
SK-MEL-2 melanoma = system: SK-MEL-2 melanoma
U251 CNS = system: U251 CNS
LOX IMVI melanoma = system: LOX IMVI melanoma
K-562 leukemia = system: K-562 leukemia
TK-10 renal = system: TK-10 renal
NCI-H460 lung = system: NCI-H460 lung
UACC-257 melanoma = system: UACC-257 melanoma
SF-295 CNS = system: SF-295 CNS
HS 578T breast = system: HS 578T breast
NCI-H23 lung = system: NCI-H23 lung

## C#C[C@]1(O)CC[C@H]2[C@@H]3CC=C4c5sc(Nc6ccncc6)nc5CC[C@]4(C)[C@H]3CC[C@@]21C
MOLT-4 leukemia
  GI50: 216 nM
  TGI: 997 nM
UACC-62 melanoma
  GI50: 223 nM
  TGI: 595 nM
HOP-92 NSCLC
  GI50: 312 nM
  TGI: 1330 nM
HL-60(TB) leukemia
  GI50: 153 nM
  TGI: 1390 nM
786-0 renal
  GI50: 120 nM
  TGI: 648 nM
SW-620 colon
  GI50: 284 nM
  TGI: 901 nM
KM12 colon
  GI50: 387 nM
  TGI: 1780 nM
IGROV1 ovarian
  GI50: 531 nM
  TGI: 2050 nM
NCI-H226 lung
  GI50: 1620 nM
  TGI: 22500 nM
BT-549 breast
  GI50: 330 nM
  TGI: 1620 nM
HOP-62 NSCLC
  GI50: 266 nM
  TGI: 1150 nM
MCF7 breast
  GI50: 232 nM
  TGI: 1380 nM
HCT-15 colon
  GI50: 261 nM
  TGI: 1190 nM
RXF 393 renal
  GI50: 25.1 nM
  TGI: 110 nM
OVCAR-8 ovarian
  GI50: 987 nM
  TGI: 2780 nM
DU-145 prostate
  GI50: 1050 nM
  TGI: 3620 nM
RPMI-8226 leukemia
  GI50: 42 nM
  TGI: 250 nM
EKVX NSCLC
  GI50: 552 nM
  TGI: 3160 nM
T-47D breast
  GI50: 973 nM
  TGI: 3990 nM
MALME-3M melanoma
  GI50: 266 nM
  TGI: 994 nM
SR leukemia
  GI50: 47.2 nM
  TGI: 483 nM
UO-31 renal
  GI50: 227 nM
  TGI: 822 nM
CCRF-CEM leukemia
  GI50: 257 nM
  TGI: 3750 nM
CAKI-1 renal
  GI50: 345 nM
  TGI: 1560 nM
OVCAR-4 ovarian
  GI50: 1360 nM
  TGI: 3190 nM
SF-268 CNS
  GI50: 445 nM
  TGI: 2850 nM
MDA-MB-435
  GI50: 293 nM
  TGI: 1050 nM
HT29 colon
  GI50: 308 nM
  TGI: 1290 nM
SN12C renal
  GI50: 745 nM
  TGI: 2110 nM
NCI/ADR-RES ovarian
  GI50: 1260 nM
  TGI: 4480 nM
OVCAR-5 ovarian
  GI50: 1060 nM
  TGI: 3130 nM
SK-OV-3 ovarian
  GI50: 268 nM
  TGI: 780 nM
HCC-2998 colon
  GI50: 1480 nM
  TGI: 2930 nM
SK-MEL-5 melanoma
  GI50: 467 nM
  TGI: 1570 nM
PC-3 prostate
  GI50: 243 nM
  TGI: 1350 nM
OVCAR-3 ovarian
  GI50: 1480 nM
  TGI: 3660 nM
COLO 205 colon
  GI50: 227 nM
  TGI: 494 nM
M14 melanoma
  GI50: 182 nM
  TGI: 398 nM
SK-MEL-28 melanoma
  GI50: 148 nM
  TGI: 394 nM
A498 renal
  GI50: 204 nM
  TGI: 517 nM
HCT-116 colon
  GI50: 309 nM
  TGI: 1200 nM
MDA-MB-231 breast
  GI50: 942 nM
  TGI: 3280 nM
NCI-H522 lung
  GI50: 740 nM
  TGI: 2220 nM
SNB-75 CNS
  GI50: 191 nM
  TGI: 1930 nM
SF-539 CNS
  GI50: 108 nM
  TGI: 318 nM
ACHN renal
  GI50: 484 nM
  TGI: 1940 nM
SNB-19 CNS
  GI50: 305 nM
  TGI: 4640 nM
A549 NSCLC
  GI50: 372 nM
  TGI: 1820 nM
SK-MEL-2 melanoma
  GI50: 342 nM
  TGI: 1320 nM
U251 CNS
  GI50: 103 nM
  TGI: 1160 nM
LOX IMVI melanoma
  GI50: 200 nM
  TGI: 476 nM
K-562 leukemia
  GI50: 247 nM
  TGI: 811 nM
TK-10 renal
  GI50: 1010 nM
  TGI: 2460 nM
NCI-H460 lung
  GI50: 372 nM
  TGI: 1400 nM
UACC-257 melanoma
  GI50: 193 nM
  TGI: 416 nM
SF-295 CNS
  GI50: 91.2 nM
  TGI: 311 nM
HS 578T breast
  GI50: 64.5 nM
  TGI: 580 nM
NCI-H23 lung
  GI50: 657 nM
  TGI: 2520 nM
